≈ marks a conversion by molar mass, not a printed value. Where two headings read alike, the source gives them in different places.
Columns and labels:
[1] = system: Staphylococcus haemolyticus; experiment: microbe, parasite or virus in culture; type: cell-based; details: Table 13
[2] = system: Staphylococcus aureus (different strains); type: cell-based; details: Table 13; multiple values: different strains
Bacillus subtilis = experiment: microbe, parasite or virus in culture; type: cell-based; details: Table 13
[3] = system: E. coli strains harboring the indicated amino acid at SPase residue 84; experiment: microbe, parasite or virus in culture; type: cell-based; details: Escherichia coli
C. efficiens = experiment: microbe, parasite or virus in culture; type: cell-based; details: Corynebacterium efficiens
Chlamydia trachomatis = experiment: microbe, parasite or virus in culture; type: cell-based
[4] = molecular target: T1, truncated wild type E. coli SPase (Escherichia coli, UniProt P00803); experiment: biochemical; type: binding
T1 construct: a truncated wild type E. coli SPase that lacks the N-terminal membrane helices; made in house; host or cells: E. coli BL21(DE3)

wild type E. coli MG1655 = experiment: microbe, parasite or virus in culture; type: cell-based, Escherichia coli; details: for MIC: Escherichia coli
[5] = system: P. aeruginosa PAS2006 (SPase P84S); experiment: microbe, parasite or virus in culture; type: cell-based; details: Pseudomonas aeruginosa, read-out: MIC, P. aeruginosa PAS2006
[6] = system: lepB(P84L) E. coli MG1655; experiment: microbe, parasite or virus in culture; type: cell-based, Escherichia coli; details: for MIC: Escherichia coli
Lactobacillus gasseri = experiment: microbe, parasite or virus in culture; type: cell-based; details: Table 13
[7] = system: lepB(P29S) S. aureus 8325; experiment: microbe, parasite or virus in culture; type: cell-based, Staphylococcus aureus; details: for MIC: Staphylococcus aureus
S. aureus Rosenbach 328 = experiment: microbe, parasite or virus in culture; type: cell-based; details: Staphylococcus aureus; MRSA strain
[8] = molecular target: T2, full-length wild type S. aureus SPase (Pro-variant) (Staphylococcus aureus, UniProt P0A070); experiment: biochemical; type: binding
T2 construct: Full length His-tagged S. aureus SPase proteins were expressed in and purified from BL21(DE3); His6 (N); made in house; host or cells: E. coli BL21(DE3)

[9] = system: wild type P. aeruginosa PAO1; experiment: microbe, parasite or virus in culture; type: cell-based, Pseudomonas aeruginosa; details: for MIC: Pseudomonas aeruginosa
Lactobacillus plantarum = experiment: microbe, parasite or virus in culture; type: cell-based; details: Lactiplantibacillus plantarum, Table 13
Prevotella copris = experiment: microbe, parasite or virus in culture; type: cell-based; details: Table 13
Bacteroides fragilis = experiment: microbe, parasite or virus in culture; type: cell-based; details: Table 13
[10] = molecular target: T3, full-length wild type E. coli SPase (Pro-variant) (Escherichia coli, UniProt P00803); experiment: biochemical; type: binding
T3 construct: Full length His-tagged E. coli SPase proteins were expressed in BL21(DE3); His6; made in house; host or cells: E. coli BL21(DE3)

B. brevis = experiment: microbe, parasite or virus in culture; type: cell-based, Brevibacillus brevis; details: for MIC: Brevibacillus brevis
R. equi = experiment: microbe, parasite or virus in culture; type: cell-based; details: Rhodococcus (subgen. Prescottella) equi; Table 4
[11] = system: E. coli and P. aeruginosa serine mutants; experiment: MIC after permeabilizing with polymyxin B nonapeptide; type: cell-based
S. pyogenes = experiment: microbe, parasite or virus in culture; type: cell-based, Streptococcus pyogenes; details: for MIC: Streptococcus pyogenes
Clostridium bolteae = experiment: microbe, parasite or virus in culture; type: cell-based; details: Enterocloster bolteae, Table 13
S. aureus COL = experiment: microbe, parasite or virus in culture; type: cell-based; details: Staphylococcus aureus, read-out: MIC, S. aureus COL
Enterococcus faecalis = experiment: microbe, parasite or virus in culture; type: cell-based; details: Table 13
R. opacus = experiment: microbe, parasite or virus in culture; type: cell-based; details: Rhodococcus opacus
[12] = system: Lactobacillus acidophilus; experiment: microbe, parasite or virus in culture; type: cell-based; details: Table 13
Clostridium difficile = experiment: microbe, parasite or virus in culture; type: cell-based; details: Clostridioides difficile, Table 13
Francisella tularensis = experiment: microbe, parasite or virus in culture; type: cell-based
[13] = molecular target: T4, full-length P29S mutant S. aureus SPase (Ser-variant) (Staphylococcus aureus, UniProt P0A070, P29S); experiment: biochemical; type: binding
T4 construct: Full length His-tagged S. aureus SPase proteins were expressed in and purified from BL21(DE3); His6 (N); made in house; host or cells: E. coli BL21(DE3)

[14] = molecular target: T5, P84S variant of truncated E. coli SPase (Escherichia coli, UniProt P00803, P84S); experiment: biochemical; type: binding
T5 construct: a truncated wild type E. coli SPase that lacks the N-terminal membrane helices; made in house; host or cells: E. coli BL21(DE3)

Clostridium perfringens = experiment: microbe, parasite or virus in culture; type: cell-based; details: read-out: MIC, Clostridium perfringens
[15] = Table 2B, SPase with resistance-conferring Pro
[16] = Table 2B, SPase without resistance-conferring Pro

CCCCCCCCCCCCCCCC(=O)N(C)[C@H](CO)C(=O)N[C@H](C)C(=O)NCC(=O)N(C)[C@@H]1C(=O)N[C@@H](C)C(=O)N[C@H](C(=O)O)Cc2ccc(O)c(c2)-c2cc1ccc2O [Arylomycin C16]
MIC [1]: 2 µg/mL (≈ 2.27 µM) | MIC, Staphylococcus aureus [2]: 16 to 32 µg/mL | MIC (Bacillus subtilis): > 128 µg/mL | MIC ([3]; read-out: MIC, E. coli SPase residue 84 His variant): 4 µg/mL (≈ 4.54 µM) | MIC ([3]; read-out: MIC, E. coli SPase residue 84 Phe or His variant): 2 µg/mL (≈ 2.27 µM) | MIC ([3]; read-out: MIC, E. coli with Pro at SPase residue 84): > 256 µg/mL | MIC ([3]; read-out: MIC, E. coli with any other amino acid at SPase residue 84): ≤ 16 µg/mL | MIC (C. efficiens; Table 4, read-out: MIC, C. efficiens): 16 µg/mL (≈ 18.2 µM) | MIC (C. efficiens; Table 13, […], read-out: MIC, Corynebacterium efficiens): > 64 µg/mL | MIC (C. efficiens; text b755, read-out: MIC, Corynebacterium efficiens): 16 µg/mL (≈ 18.2 µM) | MIC (Chlamydia trachomatis; Table 13, […], read-out: MIC, Chlamydia trachomatis): 6 µg/mL (≈ 6.81 µM) | MIC (Chlamydia trachomatis; eradicated from human HeLa 229 cells, read-out: MIC, C. trachomatis): 6 µg/mL (≈ 6.81 µM) | Kd [4]: 979 ± 69 nM | MIC (wild type E. coli MG1655; MG1655, read-out: MIC, Resistant Ec): > 64 µg/mL | MIC (wild type E. coli MG1655; MG1655, Table 11, […], read-out: MIC, E. coli MG1655): > 128 µg/mL | MIC (wild type E. coli MG1655; MG1655, Table 13, […], read-out: MIC, Escherichia coli): > 128 µg/mL | MIC (wild type E. coli MG1655; MG1655, read-out: MIC, E. coli): > 64 µg/mL | MIC, Resistant Ec (wild type E. coli MG1655; [15]): >64 µg/mL | MIC [5]: 8 µg/mL (≈ 9.08 µM) | MIC ([6]; MG1655, read-out: MIC, E. coli P84L): 2 µg/mL (≈ 2.27 µM) | MIC ([6]; MG1655, read-out: MIC, Sensitive Ec): 0.5 µg/mL (≈ 0.567 µM) | MIC, Sensitive Ec [6, 16]: 0.5 µg/mL (≈ 0.567 µM) | MIC (Lactobacillus gasseri): > 128 µg/mL | MIC ([7]; read-out: MIC, S. aureus P29S): 8 µg/mL (≈ 9.08 µM) | MIC ([7]; read-out: MIC, S. aureus PAS8001): 2 µg/mL (≈ 2.27 µM) | MIC ([7]; read-out: MIC, Sensitive Sa): 2 µg/mL (≈ 2.27 µM) | MIC, Sensitive Sa [7, 16]: 2 µg/mL (≈ 2.27 µM) | MIC (S. aureus Rosenbach 328): 25 µg/mL (≈ 28.4 µM) | Kd [8]: 1280 ± 278 nM | MIC ([9]; PAO1, read-out: MIC, Resistant Pa): > 64 µg/mL | MIC ([9]; PAO1, Table 11, […], read-out: MIC, P. aeruginosa PAO1): > 128 µg/mL | MIC ([9]; PAO1, Table 13, […], read-out: MIC, Pseudomonas aeruginosa): > 128 µg/mL | MIC, Resistant Pa [9, 15]: >64 µg/mL | MIC (Lactobacillus plantarum): > 128 µg/mL | MIC (Prevotella copris): > 16 µg/mL | MIC (Bacteroides fragilis): > 16 µg/mL | Kd [10]: 60 ± 16 nM | MIC (B. brevis; Table 4, read-out: MIC, B. brevis): > 64 µg/mL | MIC (B. brevis; Table 13, […], read-out: MIC, Brevibacillus brevis): > 64 µg/mL | activity against B. brevis (B. brevis; MHBII broth and nutrient broth): no activity | MIC (R. equi): 16 µg/mL (≈ 18.2 µM) | decrease of MIC on permeabilizing with polymyxin B nonapeptide [11]: ≤ 4 fold | MIC (S. pyogenes; Table 4, read-out: MIC, S. pyogenes): 8 µg/mL (≈ 9.08 µM) | MIC (S. pyogenes; Table 13, […], read-out: MIC, Streptococcus pyogenes): 16 µg/mL (≈ 18.2 µM) | MIC, S. pyogenes (S. pyogenes; Table 14): 8 µg/mL (≈ 9.08 µM) | MIC (Clostridium bolteae): > 16 µg/mL | MIC (S. aureus COL): 12 µg/mL (≈ 13.6 µM) | MIC (Enterococcus faecalis): > 64 µg/mL | MIC (R. opacus; Table 4, read-out: MIC, R. opacus): 1 µg/mL (≈ 1.13 µM) | MIC (R. opacus; Table 13, […], read-out: MIC, Rhodococcus opacus): 2 µg/mL (≈ 2.27 µM) | MIC [12]: > 128 µg/mL | MIC (Clostridium difficile): > 16 µg/mL | MIC (Francisella tularensis; read-out: MIC, Francisella tularensis clinical isolate): 32 µg/mL (≈ 36.3 µM) | MIC (Francisella tularensis; read-out: MIC, Francisella tularensis clinical isolates, 8 of nineteen clinical isolates): 4 to 16 µg/mL (≈ 4.54 to 18.2 µM) | MIC (Francisella tularensis; read-out: MIC, Francisella tularensis clinical isolates, remainder of nineteen clinical isolates): > 64 µg/mL | Kd [13]: 130 ± 53 nM | Kd [14]: 39 ± 15 nM | MIC (Clostridium perfringens): > 16 µg/mL
